Measured values reported in PubChem BioAssay AID1963841 (Molecular Pharmacology Branch, DTP, NCI, 2024).

System: 439559-082-T-J2-PDC spheroid viability
Assay: Anticancer human tumor 439559-082-T-J2-PDC patient-derived colon adenocarcinoma cell line growth inhibition [POLQ]
Details: spheroids with HUVEC and MSC; for IC50: curve of first compound; for viability, T/C: stronger effect = lower value
Outline: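 PDC + HUVEC + MSC complex spheroids; POLQ inhibitors ± partner drugs; top conc. at/near clinical Cmax, else 10 microM (SN-38 1 microM), half-log dilutions; 37 degrees C, 5% CO2.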

[1] = second compound 0.0316 µM, first compound 0.00316 µM
[2] = second compound 0.0316 µM, first compound 0.01 µM
[3] = second compound 0.0316 µM, first compound 0.0316 µM
[4] = second compound 0.0316 µM, first compound 0.1 µM
[5] = second compound 0.1 µM, first compound 0.00316 µM
[6] = second compound 0.1 µM, first compound 0.01 µM
[7] = second compound 0.1 µM, first compound 0.0316 µM
[8] = second compound 0.1 µM, first compound 0.1 µM
[9] = second compound 0.316 µM, first compound 0.00316 µM
[10] = second compound 0.316 µM, first compound 0.01 µM
[11] = second compound 0.316 µM, first compound 0.0316 µM
[12] = second compound 0.316 µM, first compound 0.1 µM
[13] = second compound 1 µM, first compound 0.00316 µM
[14] = second compound 1 µM, first compound 0.01 µM
[15] = second compound 1 µM, first compound 0.0316 µM
[16] = second compound 1 µM, first compound 0.1 µM
[17] = second compound 3.16 µM, first compound 0.00316 µM
[18] = second compound 3.16 µM, first compound 0.01 µM
[19] = second compound 3.16 µM, first compound 0.0316 µM
[20] = second compound 3.16 µM, first compound 0.1 µM
[21] = second compound 10 µM, first compound 0.00316 µM
[22] = second compound 10 µM, first compound 0.01 µM
[23] = second compound 10 µM, first compound 0.0316 µM
[24] = second compound 10 µM, first compound 0.1 µM
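Note: spheroids exposed to compounds for seven days before readout.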
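Throughout, for viability, T/C: 100% = DMSO vehicle control viability.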

Structure (SMILES): Cn1ncnc1[C@H]1c2n[nH]c(=O)c3cc(F)cc(c23)N[C@@H]1c1ccc(F)cc1 + Cc1cccc(N(C)C(=O)C2C(O)CCN2c2nc(C)cc(C(F)(F)F)c2C#N)c1
- IC50 (second compound 0.0316 µM): > 0.1 µM
- IC50 (second compound 0.1 µM): > 0.1 µM
- IC50 (second compound 0.316 µM): > 0.1 µM
- IC50 (second compound 1 µM): > 0.1 µM
- IC50 (second compound 3.16 µM): > 0.1 µM
- IC50 (second compound 10 µM): > 0.1 µM
- viability, T/C (second compound 0.0316 µM, first compound 0.000316 µM): 97.7%
- viability, T/C (second compound 0.0316 µM, first compound 0.001 µM): 103%
- viability, T/C [1]: 97.5%
- viability, T/C [2]: 99.2%
- viability, T/C [3]: 90.8%
- viability, T/C [4]: 93.4%
- viability, T/C (second compound 0.1 µM, first compound 0.000316 µM): 108%
- viability, T/C (second compound 0.1 µM, first compound 0.001 µM): 108%
- viability, T/C [5]: 96%
- viability, T/C [6]: 102%
- viability, T/C [7]: 94.5%
- viability, T/C [8]: 86.3%
- viability, T/C (second compound 0.316 µM, first compound 0.000316 µM): 105%
- viability, T/C (second compound 0.316 µM, first compound 0.001 µM): 107%
- viability, T/C [9]: 99.6%
- viability, T/C [10]: 99.5%
- viability, T/C [11]: 92.7%
- viability, T/C [12]: 93.4%
- viability, T/C (second compound 1 µM, first compound 0.000316 µM): 110%
- viability, T/C (second compound 1 µM, first compound 0.001 µM): 96.5%
- viability, T/C [13]: 93.1%
- viability, T/C [14]: 92.8%
- viability, T/C [15]: 99.9%
- viability, T/C [16]: 96.8%
- viability, T/C (second compound 3.16 µM, first compound 0.000316 µM): 93%
- viability, T/C (second compound 3.16 µM, first compound 0.001 µM): 103%
- viability, T/C [17]: 103%
- viability, T/C [18]: 91.9%
- viability, T/C [19]: 101%
- viability, T/C [20]: 87.5%
- viability, T/C (second compound 10 µM, first compound 0.000316 µM): 95.7%
- viability, T/C (second compound 10 µM, first compound 0.001 µM): 98.1%
- viability, T/C [21]: 95.4%
- viability, T/C [22]: 86.2%
- viability, T/C [23]: 91.5%
- viability, T/C [24]: 85.2%

Structure (SMILES): C=CCn1c(=O)c2cnc(Nc3ccc(N4CCN(C)CC4)cc3)nc2n1-c1cccc(C(C)(C)O)n1 + Cc1cccc(N(C)C(=O)C2C(O)CCN2c2nc(C)cc(C(F)(F)F)c2C#N)c1
- IC50 (second compound 0.0316 µM): > 1 µM
- IC50 (second compound 0.1 µM): > 1 µM
- IC50 (second compound 0.316 µM): > 1 µM
- IC50 (second compound 1 µM): > 1 µM
- IC50 (second compound 3.16 µM): > 1 µM
- IC50 (second compound 10 µM): > 1 µM
- viability, T/C [1]: 104%
- viability, T/C [2]: 96.8%
- viability, T/C [3]: 93.3%
- viability, T/C [4]: 92.1%
- viability, T/C (second compound 0.0316 µM, first compound 0.316 µM): 83.7%
- viability, T/C (second compound 0.0316 µM, first compound 1 µM): 78.9%
- viability, T/C [5]: 98%
- viability, T/C [6]: 103%
- viability, T/C [7]: 107%
- viability, T/C [8]: 88.3%
- viability, T/C (second compound 0.1 µM, first compound 0.316 µM): 93.1%
- viability, T/C (second compound 0.1 µM, first compound 1 µM): 84.1%
- viability, T/C [9]: 104%
- viability, T/C [10]: 104%
- viability, T/C [11]: 85.8%
- viability, T/C [12]: 95.3%
- viability, T/C (second compound 0.316 µM, first compound 0.316 µM): 100%
- viability, T/C (second compound 0.316 µM, first compound 1 µM): 71%
- viability, T/C [13]: 86.3%
- viability, T/C [14]: 99.8%
- viability, T/C [15]: 102%
- viability, T/C [16]: 102%
- viability, T/C (second compound 1 µM, first compound 0.316 µM): 93.4%
- viability, T/C (second compound 1 µM, first compound 1 µM): 75.3%
- viability, T/C [17]: 94.6%
- viability, T/C [18]: 105%
- viability, T/C [19]: 91.7%
- viability, T/C [20]: 95.4%
- viability, T/C (second compound 3.16 µM, first compound 0.316 µM): 96.5%
- viability, T/C (second compound 3.16 µM, first compound 1 µM): 76.8%
- viability, T/C [21]: 100%
- viability, T/C [22]: 90.6%
- viability, T/C [23]: 99.3%
- viability, T/C [24]: 97.8%
- viability, T/C (second compound 10 µM, first compound 0.316 µM): 93.5%
- viability, T/C (second compound 10 µM, first compound 1 µM): 74.3%
